In brackets after ≈: the same amount, converted by molar mass. Read-outs that look alike come from different tables or passages of the source.
Experiments:
[1] = tested on: S. aureus Sa1 ATCC 13709; assay: microbe, parasite or virus in culture; type: cell-based; details: Staphylococcus aureus
[2] = tested on: S. aureus Sa26 ATCC 25923; assay: Antibacterial activity assay (MIC), S. aureus Sa26; type: cell-based; details: Staphylococcus aureus
[3] = tested on: S. aureus Sa4 NCTC 6571; assay: Antibacterial activity assay (MIC), S. aureus Sa4; type: cell-based; details: Staphylococcus aureus
[4] = tested on: S. aureus Sa2 clinical strain NCIMB 41953, MRSA; assay: microbe, parasite or virus in culture; type: cell-based; details: Staphylococcus aureus, read-out: MIC Sa2
[5] = tested on: H. influenza Hi3 ATCC 31517; assay: organism not typed; type: cell-based; details: read-out: MIC Hi3
[6] = tested on: H. influenza Hi10 clinical strain; assay: organism not typed; type: cell-based; details: read-out: MIC Hi10
[7] = tested on: H. influenza Hi47 clinical strain, Ampicillin Resistant; assay: organism not typed; type: cell-based; details: read-out: MIC Hi47
[8] = tested on: H. influenza Hi106 ATCC 51907; assay: organism not typed; type: cell-based; details: read-out: MIC Hi106
[9] = tested on: E. coli Ec1 ATCC 25922; assay: Antibacterial activity assay (MIC), E. coli Ec1; type: cell-based; details: Escherichia coli
[10] = tested on: E. coli Ec50 efflux pump KO; assay: microbe, parasite or virus in culture; type: cell-based; details: Escherichia coli, read-out: MIC Ec50 efflux pump KO
[11] = tested on: E. coli Ec113 efflux pump KO; assay: microbe, parasite or virus in culture; type: cell-based; details: Escherichia coli, read-out: MIC Ec113 efflux pump KO
[12] = target: DNA Polymerase IIIα (DnaE) from Staphylococcus aureus (Staphylococcus aureus, UniProt Q6GG04); assay: biochemical
[13] = tested on: Methicillin Resistant S. aureus (MRSA); assay: Neutropenic mouse thigh infection model; details: Thigh Sa
[14] = ATCC25923, read-out: MIC Sa26 + 10% SH
[15] = ATCC25923, read-out: MIC Sa26 + 50% SH
[16] = ATCC13709, S. aureus Sa1 ATCC 13709, sensitive strain, Mueller-Hinton Broth, 37° C., read-out: MIC Sa1
[17] = ATCC25923, read-out: MIC Sa26 + 10% SH, S. aureus Sa26 + 10% SH
[18] = ATCC25923, read-out: MIC Sa26 + 50% SH, S. aureus Sa26 + 50% SH
[19] = ATCC25923, S. aureus Sa26 ATCC 25923, sensitive strain, Mueller-Hinton Broth, 37° C., read-out: MIC Sa26
[20] = NCTC6571, S. aureus Sa4 NCTC 6571, sensitive strain, read-out: MIC Sa4
[21] = ATCC25922, E. coli Ec1 ATCC 25922, sensitive strain, read-out: MIC Ec1
[22] = Study 6, 25 mg/kg PO BID, sample time 24 h PI
[23] = Study 7, 15 mg/kg PO BID, sample time 24 h PI
[24] = Study 7, 50 mg/kg PO BID, sample time 24 h PI
[25] = Study 8, 50 mg/kg PO QD, sample time 48 h PI
[26] = Study 9, 50 mg/kg PO BID, sample time 24 h PI

DNA Polymerase IIIα (DnaE) from Staphylococcus aureus, sequence (Q6GG04 1-1022): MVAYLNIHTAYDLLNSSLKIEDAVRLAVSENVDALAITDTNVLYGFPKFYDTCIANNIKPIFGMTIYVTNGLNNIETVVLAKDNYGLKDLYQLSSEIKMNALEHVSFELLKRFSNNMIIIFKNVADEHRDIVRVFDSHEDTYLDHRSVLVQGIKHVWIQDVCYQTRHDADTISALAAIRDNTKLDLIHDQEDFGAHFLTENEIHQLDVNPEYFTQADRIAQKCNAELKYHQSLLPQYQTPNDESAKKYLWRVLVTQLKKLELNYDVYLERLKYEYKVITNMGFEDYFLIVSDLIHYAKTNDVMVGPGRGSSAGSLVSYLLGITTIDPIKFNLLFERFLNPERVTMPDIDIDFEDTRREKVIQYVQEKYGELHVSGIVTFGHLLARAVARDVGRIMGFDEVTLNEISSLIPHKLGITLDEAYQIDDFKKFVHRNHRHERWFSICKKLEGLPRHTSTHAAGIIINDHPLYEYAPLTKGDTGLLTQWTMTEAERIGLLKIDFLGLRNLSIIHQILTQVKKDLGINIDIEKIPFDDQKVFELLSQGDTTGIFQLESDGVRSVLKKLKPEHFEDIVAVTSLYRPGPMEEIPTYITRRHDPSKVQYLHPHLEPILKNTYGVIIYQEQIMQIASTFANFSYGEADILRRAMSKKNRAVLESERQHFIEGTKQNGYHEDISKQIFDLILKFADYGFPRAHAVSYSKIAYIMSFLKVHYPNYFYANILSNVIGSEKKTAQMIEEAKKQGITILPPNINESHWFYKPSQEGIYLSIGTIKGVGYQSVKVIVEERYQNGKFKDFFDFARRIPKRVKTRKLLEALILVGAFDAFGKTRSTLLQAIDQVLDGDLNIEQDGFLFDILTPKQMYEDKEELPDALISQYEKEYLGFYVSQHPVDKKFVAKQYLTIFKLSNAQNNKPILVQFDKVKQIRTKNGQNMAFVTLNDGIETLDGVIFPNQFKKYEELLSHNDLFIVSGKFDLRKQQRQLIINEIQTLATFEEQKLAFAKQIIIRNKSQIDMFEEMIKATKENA

Compound: COC[C@@H](O)[C@H]1OC(=O)[C@H](COC)[C@H]2C=C[C@H]3[C@H]4O[C@]2(/C(C)=C/[C@H]1C)[C@@H]3[C@H](O)[C@@H](C)[C@H]4OC(=O)c1cc(Cl)c[nH]1 [Compound 30, 8-O-4-Chloro-1H-pyrrole-2′-carbonylbaleomycin]
- MIC ([1]; ATCC13709, read-out: MIC Sa1): 16 µg/mL (≈ 27.6 µM)
- MIC ([2]; ATCC25923, read-out: MIC Sa26): 16 µg/mL (≈ 27.6 µM)
- MIC [2, 14]: 32 µg/mL
- MIC [2, 15]: 64 µg/mL
- MIC ([3]; NCTC6571, read-out: MIC Sa4): 16 µg/mL (≈ 27.6 µM)
- MIC [4]: 8 µg/mL (≈ 13.8 µM)
- MIC [5]: > 64 µg/mL
- MIC [6]: 64 µg/mL (≈ 110 µM)
- MIC [7]: 64 µg/mL (≈ 110 µM)
- MIC [8]: > 64 µg/mL
- MIC ([9]; ATCC25922, read-out: MIC Ec1): > 64 µg/mL
- MIC [10]: 16 µg/mL (≈ 27.6 µM)
- MIC [11]: 0.5 µg/mL (≈ 0.862 µM)

Compound: COC[C@@H]1[C@@H](O)[C@@H]2[C@H]3C=C[C@@H]4[C@@H](COC)C(=O)O[C@H]([C@H](O)COC)[C@H](C)/C=C(\C)[C@@]24O[C@H]3[C@@H]1OC(=O)c1cc(Cl)c(Cl)[nH]1 [Compound 31, 8-O-4,5-Dichloro-1H-pyrrole-2′-carbonylbranimycin]
- MIC ([1]; ATCC13709, read-out: MIC Sa1): > 64 µg/mL
- MIC ([2]; ATCC25923, read-out: MIC Sa26): > 64 µg/mL
- MIC [2, 14]: > 64 µg/mL
- MIC [2, 15]: > 64 µg/mL
- MIC ([3]; NCTC6571, read-out: MIC Sa4): 64 µg/mL (≈ 99.3 µM)
- MIC [4]: 64 µg/mL (≈ 99.3 µM)
- MIC [5]: > 64 µg/mL
- MIC [6]: 16 µg/mL (≈ 24.8 µM)
- MIC [7]: 32 µg/mL (≈ 49.6 µM)
- MIC [8]: 32 µg/mL (≈ 49.6 µM)
- MIC ([9]; ATCC25922, read-out: MIC Ec1): > 64 µg/mL
- MIC [10]: > 64 µg/mL
- MIC [11]: 32 µg/mL (≈ 49.6 µM)

Compound: COC[C@@H]1[C@@H](O)[C@@H]2[C@H]3C=C[C@@H]4[C@@H](COC)C(=O)O[C@H]([C@H](O)COC)[C@H](C)/C=C(\C)[C@@]24O[C@H]3[C@@H]1OC(=O)c1cc(F)c(F)[nH]1 [Compound 38, 8-O-4,5-Difluoro-1H-pyrrole-2′-carbonylbranimycin]
- MIC [1, 16]: 32 µg/mL (≈ 52.3 µM)
- MIC [2, 17]: > 64 µg/mL
- MIC [2, 18]: 64 µg/mL
- MIC [2, 19]: 64 µg/mL (≈ 105 µM)
- MIC [3, 20]: 16 µg/mL (≈ 26.2 µM)
- MIC [4]: 32 µg/mL (≈ 52.3 µM)
- MIC [5]: > 64 µg/mL
- MIC [6]: > 64 µg/mL
- MIC [7]: > 64 µg/mL
- MIC [8]: > 64 µg/mL
- MIC [9, 21]: > 64 µg/mL
- MIC [10]: > 64 µg/mL
- MIC [11]: 8 µg/mL (≈ 13.1 µM)

Compound: COCC(=NO)[C@H]1OC(=O)[C@H](COC)[C@H]2C=C[C@H]3[C@H]4O[C@]2(/C(C)=C/[C@H]1C)[C@@H]3[C@H](O)[C@@H](COC)[C@H]4OC(=O)c1cc(Cl)c[nH]1 [Compound 41, 18-Deoxy-18-oximino-8-O-4-Chloro-1H-pyrrole-2′-carbonylbranimycin]
- MIC [1, 16]: 4 µg/mL (≈ 6.42 µM)
- MIC [2, 17]: 4 µg/mL
- MIC [2, 18]: 32 µg/mL
- MIC [2, 19]: 2 µg/mL (≈ 3.21 µM)
- MIC [3, 20]: 2 µg/mL (≈ 3.21 µM)
- MIC [5]: > 64 µg/mL
- MIC [6]: > 64 µg/mL
- MIC [7]: > 64 µg/mL
- MIC [8]: > 64 µg/mL
- MIC [9, 21]: > 64 µg/mL
- MIC [10]: 64 µg/mL (≈ 103 µM)
- MIC [11]: 2 µg/mL (≈ 3.21 µM)
- IC50 [12]: 1.6 to 1600 nM

Compound: COCC(=NOC(C)=O)[C@H]1OC(=O)[C@H](COC)[C@H]2C=C[C@H]3[C@H]4O[C@]2(/C(C)=C/[C@H]1C)[C@@H]3[C@H](O)[C@@H](COC)[C@H]4OC(=O)c1cc(Cl)c[nH]1 [Compound 42, 18-Acetylimino-18-deoxy-8-O-4-Chloro-1H-pyrrole-2′-carbonylbranimycin]
- MIC [1, 16]: 2 µg/mL (≈ 3.01 µM)
- MIC [2, 17]: 16 µg/mL
- MIC [2, 18]: 32 µg/mL
- MIC [2, 19]: 4 µg/mL (≈ 6.01 µM)
- MIC [3, 20]: 2 µg/mL (≈ 3.01 µM)
- MIC [4]: 2 µg/mL (≈ 3.01 µM)
- MIC [5]: > 64 µg/mL
- MIC [6]: > 64 µg/mL
- MIC [7]: > 64 µg/mL
- MIC [8]: > 64 µg/mL
- MIC [9, 21]: > 64 µg/mL
- MIC [10]: 64 µg/mL (≈ 96.2 µM)
- MIC [11]: 4 µg/mL (≈ 6.01 µM)

Compound: CC(=O)NC[C@H]1CN(c2ccc(N3CCOCC3)c(F)c2)C(=O)O1 [Linezolid]
- Log reduction vs. untreated ([13]; Study 5, 50 mg/kg PO BID, sample time 24 h PI): −4.07
- Active ([13]; Study 5, 50 mg/kg SC BID, sample time 24 h PI): Y
- Active [13, 22]: Y
- Log reduction vs. untreated [13, 22]: −4.54
- Log reduction vs. untreated ([13]; Study 6, 50 mg/kg PO BID, sample time 24 h PI): −3.49
- Active [13, 23]: Y
- Log reduction vs. untreated [13, 23]: −2.98
- Active [13, 24]: Y
- Log reduction vs. untreated [13, 24]: −5.13
- Active [13, 25]: Y
- Log reduction vs. untreated [13, 25]: −2.78
- Active [13, 26]: Y
- Log reduction vs. untreated [13, 26]: −4.01

Reference: US20160297830A1, “NOVEL COMPOUNDS USEFUL FOR THE TREATMENT OF BACTERIAL INFECTIOUS DISEASES” (GALAPAGOS NV, priority 2013, published 2016)
